The record followed here is article PMC7037732, “Synthesis of Combretastatin A-4 and 3′-Aminocombretastatin A-4 derivatives with Aminoacid Containing Pendants and Study of their Interaction with Tubulin and as Downregulators of the VEGF, hTERT and c-Myc Gene Expression” (Molecules, 2020).

Molecules are shown by their SMILES.

In general, IC50 refers to the point on the concentration scale where inhibition reaches its midpoint. Low readings indicate inhibition by little substance, high ones a need for much substance.

Test [1] has as its system HT-29 (human colon adenocarcinoma). As to the kind of experiment: Inhibition of cell proliferation (MTT), HT-29. The class given is cell-based. Particulars: Homo sapiens, 48 h of treatment (footnote), average ±SD of three experiments.
The subject of test [2] is HEK-293 (human embryonic kidney cells). As to the kind of experiment: Inhibition of cell proliferation (MTT), nontumor HEK-293. The format is cell-based. To be noted: Homo sapiens, 48 h of treatment (footnote), average ±SD of three experiments.
The subject of another test is A-549 cells. Nature of the test: Cell cycle distribution by flow cytometry. The format is cell-based, human. The gist of the method:
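A-549 cells were harvested, fixed in cold 70% ethanol (30 min, −20 °C), then stained with 50 µg/mL propidium iodide plus 100 µg/mL RNase A in PBS for 20 min at room temperature in the dark. Flow cytometry used 488 nm excitation and 620 nm emission, giving the percentage of cells in G2/M.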

A further test relates to VEGF gene. As to the kind of experiment: VEGF gene expression by RT-qPCR in HT-29 cells. The class given is cell-based, human. On the procedure:
(§1) The effect on the expression of VEGF, hTERT and c-Myc genes has been studied for CA-4 and its derivatives that show selectivity indexes higher than 0.9 on the HT-29 cell line. The studied derivatives, together with the concentrations to which they have been tested, are CA-4 (15 μM); 4.1 (Gly, 5 μM); 4.5 (L-Pro, 25 μM); 4.9 (L-Met, 25 μM); 6.2 (D-Leu, 25 μM); 6.3 (D-Phe, 25 μM); 6.4 (D-Pro, 25 μM) and 6.5 (D-Ser, 10 μM). The expression of the genes was determined by RT-qPCR methodology, as described in the Materials and Methods section.
(§2) As regards AmCA-4 derivatives, the effect on the expression of the VEGF, hTERT and c-Myc genes has been studied on those that show IC50 in the low nanomolar range on the HT-29 cell line and/or on compounds whose selectivity indexes with respect to this cell line are higher than 1. The studied compounds, together with the concentrations to which they have been tested, are: CA-4 (15 μM), AmCA-4 (15 nM), 7.1 (7 nM), 7.2 (1.5 nM), 7.3 (4 nM), 7.4 (15 nM), 7.5 (2 nM), 7.7 (7 nM), 7.8 (15 nM), 7.9 (30 nM), 8.1 (7 nM), 8.2 (3 nM), 8.3 (10 nM), 8.4 (1.5 nM), 8.5 (4 nM), 8.7 (7 nM), 8.8 (3 nM) and 8.9 (4 nM).
(§3) HT-29 cells at 70–80% confluence were collected, and 1.5 × 10^5 cells were placed in a six-well plate in 1.5 mL of the medium. After 24 h, cells were incubated with the corresponding compounds for 48 h. Cells were collected, and the total cellular RNA from the HT-29 cells was isolated using an Ambion RNA Extraction Kit, according to the manufacturer’s instructions. The cDNA was synthesized by MMLV-RT with […] of extracted RNA and oligo(dT)15, according to the manufacturer’s instructions. Genes were amplified by a thermal cycler and StepOnePlus™ TaqMan® probes. TaqMan® Gene Expression Master Mix Fast, containing the appropriate buffer for the amplification conditions, dNTPs, thermostable DNA polymerase enzyme and a passive reference probe, was used. To amplify each of the genes, the predesigned primers sold by Life Technologies TaqMan® Gene Expression Assays Hs99999903-m1 (β-actin), Hs00900055-m1 (VEGF), Hs00972646-m1 (hTERT) and Hs00153408-m1 (c-Myc) were used.

In the next test the test system is hTERT gene. Nature of the test: hTERT gene expression by RT-qPCR in HT-29 cells. The format is cell-based, human. On the procedure: as §1, §2, §3
The mark [3] stands for this setting: Homo sapiens; HT-29, 48 h, 15 nM; control 100.
The mark [4] stands for this setting: Homo sapiens; HT-29, 48 h, 15 μM; control (DMSO) 100; normalized to β-actin.
The mark [5] stands for this setting: A-549, 24 h, concentration per compound as in Tables 6 and 7.
Setting [6] is: Homo sapiens, HT-29, 48 h, 5 μM, control 100.
Where [7] appears, read: Homo sapiens; HT-29, 48 h, 25 μM; control 100.
Setting [8] is: HT-29, 48 h; discussion; concentration per compound.
[9] abbreviates: Homo sapiens, HT-29, 48 h, 25 μM, control 100.

As to `COc1ccc(/C=C\c2cc(OC)c(OC)c(OC)c2)cc1N` [AmCA-4, 3′-aminocombretastatin A-4], the half-inhibitory concentration (IC50) in test [1] (HT-29, 48 h, Table 2) worked out at 0.022 ± 0.001 µM. Half-maximal inhibition in test [2] (HEK293, 48 h, Table 2) (IC50) required 0.007 ± 0.001 µM. In the test on A-549 cells (A-549, 24 h, 0.125 µM), this molecule gave a G0/G1 of 26 ± 1%, a G2/M of 59 ± 2% and an S of 15 ± 2%. The mrna remaining at 0.015 µM with VEGF gene (setting [3]) is 67%. Moreover, the mrna remaining at 0.015 µM in the test with hTERT gene (setting [3]) worked out at 50%.
In test [1] (HT-29, Table 1), `COc1ccc(/C=C\c2cc(OC)c(OC)c(OC)c2)cc1O` [CA-4, combretastatin A-4] came in with an IC50 of 4.2 ± 0.5 µM. In addition, in test [2] (HEK293, Table 1), the IC50 was found to be 25 ± 3 µM. In addition, in the test with A-549 cells (24 h), the “cells accumulated in the G2/M phase” value is 60%. Besides, in the test on A-549 cells (A-549, 24 h, 0.05 μM), the G0/G1 came out at 25 ± 1%, the G2/M was 60 ± 2% and the S amounted to 15 ± 1%. This molecule also had a mrna remaining at 15 µM with VEGF gene (setting [4]) of 40%. Besides, the mrna remaining at 15 µM with hTERT gene (setting [4]) came to 85%.
`COc1ccc(/C=C\c2cc(OC)c(OC)c(OC)c2)cc1OCC(=O)NCC(=O)O` [Compound 4.1] registered a 50% inhibitory concentration (IC50) in test [1] (HT-29, 48 h, Table 1) of 5 ± 1 µM. This molecule yielded an IC50 in test [2] (HEK293, 48 h, Table 1) of 5 ± 1 µM. In the test on A-549 cells (A-549, 24 h, 75 μM), the G0/G1 stood at 68%, the G2/M was found to be 20% and the S was determined as 12%. In addition, the “Effect on the cell cycle” value with A-549 cells (setting [5]) is given as “do not exert any significant effect on the cells”. The molecule also showed a mrna remaining at 5 µM in the test on VEGF gene (setting [6]) of 45%. In the test with hTERT gene (setting [6]), the mrna remaining at 5 µM is 56%.
The molecule `COc1ccc(/C=C\c2cc(OC)c(OC)c(OC)c2)cc1OCC(=O)N[C@H](C(=O)O)C(C)C` [Compound 4.2] gave an IC50 in test [1] (HT-29, Table 1) of 12 ± 5 µM. In addition, the midpoint of inhibition in test [2] (HEK293, Table 1), the IC50, lay at 4 ± 1 µM. In the test on A-549 cells (A-549, 24 h, 50 μM), the G0/G1 is on record as 17 ± 2%, the G2/M was 67 ± 4% and the S amounted to 16 ± 3%. In addition, the “cells accumulated in the G2/M phase” value in the test with A-549 cells (A-549, 24 h, concentration per compound as in Tables 6 and 7, control 14%) is 50–70%. Moreover, in the test with VEGF gene (setting [7]), the mrna remaining at 25 µM is 89%. In the test on hTERT gene (setting [7]), this molecule returned a mrna remaining at 25 µM of 82%.
Take `COc1ccc(/C=C\c2cc(OC)c(OC)c(OC)c2)cc1OCC(=O)N[C@@H](CCSC)C(=O)O` [Compound 4.9]: 32 ± 6 µM corresponded to half-maximal inhibition in test [1] (HT-29, 48 h, Table 1) (IC50). Also, in test [2] (HEK293, 48 h, Table 1), the IC50 is 40 ± 4 µM. In the test with A-549 cells (A-549, 24 h, 75 μM), this molecule gave a G0/G1 of 76%, a G2/M of 13% and an S of 11%. In addition, the “Effect on the cell cycle” value in the test on A-549 cells (setting [5]) is listed as “do not exert any significant effect on the cells”. For the same molecule, the “downregulation of VEGF gene expression” value in the test with VEGF gene (setting [8]) is given as “more than 55%”. In addition, the mrna remaining at 25 µM with VEGF gene (setting [9]) fell in the range of 37 to 55%. For the same molecule, the “downregulation of hTERT gene expression” value with hTERT gene (setting [8]) is recorded as “more than 55%”. Moreover, the mrna remaining at 25 µM in the test with hTERT gene (setting [9]) amounted to 38%.
Molecule `COc1ccc(/C=C\c2cc(OC)c(OC)c(OC)c2)cc1OCC(=O)N[C@H](CC(C)C)C(=O)O` [Compound 6.2] came in with a half-inhibitory concentration (IC50) in test [1] (HT-29, 48 h, Table 1) of 47 ± 9 µM. The 50% inhibitory concentration (IC50) in test [2] (HEK293, 48 h, Table 1) amounted to 49 ± 12 µM. Further, in the test on A-549 cells (A-549, 24 h, 75 μM), the G0/G1 is listed as 85 ± 1%, the G2/M is 12 ± 1% and the S was determined as 3 ± 2%. Moreover, the “Effect on the cell cycle” value with A-549 cells (setting [5]) is reported as “do not exert any significant effect on the cells”. For the same molecule, the mrna remaining at 25 µM in the test with VEGF gene (setting [9]) is 40%. This molecule displayed a mrna remaining at 25 µM with hTERT gene (setting [9]) of 87%.
For the molecule `COc1ccc(/C=C\c2cc(OC)c(OC)c(OC)c2)cc1OCC(=O)N[C@H](Cc1ccccc1)C(=O)O` [Compound 6.3], the half-inhibitory concentration (IC50) in test [1] (HT-29, Table 1) was determined as 27 ± 5 µM; in test [2] (HEK293, Table 1), 46 ± 6 µM. For the same molecule, the G0/G1 in the test on A-549 cells (A-549, 24 h, 75 μM) worked out at 74 ± 3%. For the same molecule, the G2/M in the test on A-549 cells (A-549, 24 h, 75 μM) is 14 ± 2%. Further, in the test on A-549 cells (A-549, 24 h, 75 μM), the S turned out to be 11 ± 6%. Moreover, in the test with A-549 cells (setting [5]), the “Effect on the cell cycle” value was “do not exert any significant effect on the cells”. The mrna remaining at 25 µM with VEGF gene (setting [7]) worked out at 77%; with hTERT gene (setting [7]), 68%.
